In patent US20240101528A1, “SUBSTITUTED PYRAZOLO PIPERIDINE CARBOXYLIC ACIDS” (BAYER AKTIENGESELLSCHAFT, priority 2020, published 2024):
Where a name gives a salt, the structure may show the parent alone.

What was measured:
[1] = Pharmacokinetic parameters following oral administration in rats; assay type: in vivo, male Wistar rats; conditions: for F: bioavailability
Description: (§1) B-5. Determination of Pharmacokinetic Parameters Following Intravenous and Oral Administration
(§2) The pharmacokinetic parameters of the compounds according to the invention were determined in male Wistar rats and/or in female beagles and/or in cynomolgus monkeys and/or in male CD-1 mice. Intravenous administration in the case of mice and rats was carried out by means of a species-specific plasma/DMSO formulation, and in the case of dogs and monkeys by means of a water/PEG400/ethanol formulation. In all species, oral administration of the dissolved substance was performed via gavage, based on a water/PEG400/ethanol formulation.
(§3) An internal standard (which may also be a chemically unrelated substance) was added to the samples of the compounds of the invention, calibration samples and qualifiers, and there followed protein precipitation by means of acetonitrile in excess. Addition of a buffer solution matched to the LC conditions, and subsequent vortexing, was followed by centrifugation at 1000 g. The supernatant was analysed by LC-MS/MS using C18 reversed-phase columns and variable mobile phase mixtures. The substances were quantified via the peak heights or areas from extracted ion chromatograms of specific selected ion monitoring experiments.
(§4) The plasma concentration/time plots determined were used to calculate the pharmacokinetic parameters such as AUC, Cmax, t1/2 (terminal half-life), F (bioavailability), MRT (mean residence time) and CL (clearance), by means of a validated pharmacokinetic calculation program.
(§5) Since the substance quantification was performed in plasma, it was necessary to determine the blood/plasma distribution of the substance in order to be able to adjust the pharmacokinetic parameters correspondingly. For this purpose, a defined amount of substance was incubated in K3 EDTA whole blood of the species in question in a rocking roller mixer for 20 min. After centrifugation at 1000 g, the plasma concentration was measured (by means of LC-MS/MS; see above) and determined by calculating the ratio of the Cblood/Cplasma value.

[2] = target: T1, recombinant guanylate cyclase reporter cell line (Rattus norvegicus, UniProt P20595); experiment: Effect on a recombinant guanylate cyclase reporter cell line; assay type: cell-based; conditions: for MEC: minimum effective concentration; for EC50: half maximal effective concentration
T1 construct: expressed in transfected cells
T1 sequence (P20595 1-619): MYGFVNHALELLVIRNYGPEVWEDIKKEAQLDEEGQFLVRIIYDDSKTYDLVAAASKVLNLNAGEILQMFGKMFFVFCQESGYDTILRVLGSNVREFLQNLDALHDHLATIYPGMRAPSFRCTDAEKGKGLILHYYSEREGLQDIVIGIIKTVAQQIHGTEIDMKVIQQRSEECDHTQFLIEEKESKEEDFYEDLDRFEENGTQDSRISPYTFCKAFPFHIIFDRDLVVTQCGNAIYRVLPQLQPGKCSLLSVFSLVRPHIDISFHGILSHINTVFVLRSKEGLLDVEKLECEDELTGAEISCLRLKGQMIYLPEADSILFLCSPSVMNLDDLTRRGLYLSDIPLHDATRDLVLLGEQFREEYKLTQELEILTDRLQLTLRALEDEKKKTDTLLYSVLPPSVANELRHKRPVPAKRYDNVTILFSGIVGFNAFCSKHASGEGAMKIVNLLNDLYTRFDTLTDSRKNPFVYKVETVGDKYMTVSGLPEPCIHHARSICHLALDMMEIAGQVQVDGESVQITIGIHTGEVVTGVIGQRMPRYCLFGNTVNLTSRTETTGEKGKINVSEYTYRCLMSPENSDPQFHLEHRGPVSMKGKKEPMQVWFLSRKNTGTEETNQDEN
T1 sequence (P19686 1-690 partner): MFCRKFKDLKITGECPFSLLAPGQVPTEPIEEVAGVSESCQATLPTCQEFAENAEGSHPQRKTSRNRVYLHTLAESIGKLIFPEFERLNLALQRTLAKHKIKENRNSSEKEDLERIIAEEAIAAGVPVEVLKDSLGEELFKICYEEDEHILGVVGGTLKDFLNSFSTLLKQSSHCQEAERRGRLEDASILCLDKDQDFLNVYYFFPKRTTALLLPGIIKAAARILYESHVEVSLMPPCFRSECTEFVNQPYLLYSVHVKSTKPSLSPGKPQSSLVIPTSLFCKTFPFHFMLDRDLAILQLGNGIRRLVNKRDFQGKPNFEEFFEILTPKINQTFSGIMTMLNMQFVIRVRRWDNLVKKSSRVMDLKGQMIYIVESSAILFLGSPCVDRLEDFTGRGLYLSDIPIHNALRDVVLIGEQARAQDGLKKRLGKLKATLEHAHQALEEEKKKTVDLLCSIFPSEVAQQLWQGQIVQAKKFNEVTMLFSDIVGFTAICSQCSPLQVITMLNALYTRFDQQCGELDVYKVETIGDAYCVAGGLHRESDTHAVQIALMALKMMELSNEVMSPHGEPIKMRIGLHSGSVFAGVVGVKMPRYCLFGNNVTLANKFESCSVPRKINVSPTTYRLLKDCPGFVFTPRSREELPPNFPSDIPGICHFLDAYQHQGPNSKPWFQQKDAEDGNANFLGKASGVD
Description: B-1. Effect on a Recombinant Guanylate Cyclase Reporter Cell Line
The cellular activity of the compounds according to the invention was determined using a recombinant guanylate cyclase reporter cell line, as described in F. Wunder et al., Anal. Biochem. 339, 104-112 (2005).

[3] = Pharmacokinetic parameters following intravenous administration in rats; assay type: in vivo, male Wistar rats
Description: as §1, §2, §3, §4, §5

SMILES	AUCnorm [1] [kg·h/L]	F [1] [%]	MEC [2] [nM]	AUCnorm ([3]; intravenous administration) [kg·h/L]	EC50 [2] [µM]	further results
O=C(O)c1cnn(C2CCCN(c3cc(Cl)ccc3-c3ccc(N4CCN(CC(F)(F)F)CC4)cc3)C2)c1C(F)F (single isomer, unassigned; enantiomer 1) [Example 20, 1-[1-[5-Chloro-2-[4-[4-(2,2,2-trifluoroethyl)piperazin-1-yl]phenyl]phenyl]-3-piperidyl]-5-(difluoromethyl)pyrazole-4-carboxylic acid (Enantiomer 1)]	2.11	91.7	1.6	2.29	–	Half live in comparison to example 174 in WO 2012/058132 ([3]; after i.v. application): longer; mean residence time (MRT) in comparison to example 174 in WO 2012/058132 ([3]; after i.v. application): longer
O=C(O)c1cnn(C2CCCN(c3cc(Cl)ccc3-c3ccc(N4CCN(CC(F)(F)F)CC4)cc3)C2)c1C(F)F (single isomer, unassigned; enantiomer 2) [Example 21, 1-[1-[5-Chloro-2-[4-[4-(2,2,2-trifluoroethyl)piperazin-1-yl]phenyl]phenyl]-3-piperidyl]-5-(difluoromethyl)pyrazole-4-carboxylic acid (Enantiomer 2)]	4.04	56.1	1.6	7.23	–	–
CN1CCN(c2ncc(-c3ccc(Cl)cc3N3CCCC(n4ncc(C(=O)O)c4C(F)F)C3)cn2)CC1 (single isomer, unassigned; enantiomer 2) [Example 71, 1-(1-{5-Chloro-2-[2-(4-methylpiperazin-1-yl)pyrimidin-5-yl]phenyl}piperidin-3-yl)-5-(difluoromethyl)-1H-pyrazole-4-carboxylic acid hydrochloride (Enantiomer 2)]	–	–	30.0	–	0.092	–
CCN1CCN(c2ccc(-c3ccc(C(F)(F)F)cc3N3CCCC(n4ncc(C(=O)O)c4C(F)F)C3)cc2)CC1 (single isomer, unassigned; enantiomer 2) [Example 74, 5-(Difluoromethyl)-1-{1-[4′-(4-ethylpiperazin-1-yl)-4-(trifluoromethyl)[biphenyl]-2-yl]piperidin-3-yl}-1H-pyrazole-4-carboxylic acid hydrochloride (Enantiomer 2)]	–	–	10.0	–	0.0795	–
O=C(O)c1cnn(C2CCCN(c3cc(Cl)ccc3-c3ccc(N4CCN(C[C@H]5C[C@H]5F)CC4)cc3)C2)c1C(F)F (single isomer, unassigned; stereoisomer 2) [Example 37]	–	–	1.0	–	0.0021	–
O=C(O)c1cnn(-c2cccc(-c3cc(Cl)ccc3-c3ccc(N4CCN(CC5CC5)CC4)cc3)n2)c1C(F)(F)F [174 (WO2012/058132), reference compound]	0.63	81.8	–	0.77	–	MRT [1]: 8.41 h

More lines, main results first:

AUCnorm [1] [kg·h/L]	F [1] [%]	MEC [2] [nM]	AUCnorm ([3]; intravenous administration) [kg·h/L]	EC50 [2] [µM]	SMILES	further results
0.84	59.9	0.3	1.40	–	CCCN1CCN(c2ccc(-c3ccc(Cl)cc3N3CCCC(n4ncc(C(=O)O)c4C(F)F)C3)cc2)CC1 (single isomer, unassigned; enantiomer 2) [Example 5, 1-{1-[4-Chloro-4′-(4-propylpiperazin-1-yl)[biphenyl]-2-yl]piperidin-3-yl}-5-(difluoromethyl)-1H-pyrazole-4-carboxylic acid hydrochloride (Enantiomer 2)]	–
0.70	58.2	<0.3	1.23	–	O=C(O)c1cnn(C2CCCN(c3cc(Cl)ccc3-c3ccc(N4CCN(CC5CC5)CC4)cc3)C2)c1C(F)F (single isomer, unassigned; enantiomer 2) [Example 11, 1-(1-{4-Chloro-4′-[4-(cyclopropylmethyl)piperazin-1-yl] [biphenyl]-2-yl}piperidin-3-yl)-5-(difluoromethyl)-1H-pyrazole-4-carboxylic acid hydrochloride (Enantiomer 2)]	–
0.25	8.01	0.3	3.09	0.0019	O=C(O)c1cnn(C2CCCN(c3cc(Cl)ccc3-c3ccc(N4CCN(CC(F)F)CC4)cc3)C2)c1C(F)F (single isomer, unassigned; enantiomer 2) [Example 19, 1-[1-{4-Chloro-4′-[4-(2,2-difluoroethyl)piperazin-1-yl][biphenyl]-2-yl}piperidin-3-yl]-5-(difluoromethyl)-1H-pyrazole-4-carboxylic acid hydrochloride (Enantiomer 2)]	MRT ([1]; male, Wistar, rat, plasma, read-out: MRT): 7.46 h; half-life ([1]; male, Wistar, rat, plasma, read-out: t½ (converted)): 4.65 h; MRT ([3]; male, Wistar, rat, plasma, intravenous administration): 5.66 h; clearance ([3]; male, Wistar, rat, plasma, intravenous administration, read-out: CLplasma (converted)): 0.32 L/h/kg; half-life ([3]; male, Wistar, rat, plasma, intravenous administration, read-out: t½ (converted)): 4.24 h
–	–	3.0	–	0.018	O=C(O)c1cnn(C2CCCN(c3cc(Cl)ccc3-c3cnc(N4CCN(CC5CC5)CC4)nc3)C2)c1C(F)F (single isomer, unassigned; enantiomer 2) [Example 72, 1-[1-(5-Chloro-2-{2-[4-(cyclopropylmethyl)piperazin-1-yl]pyrimidin-5-yl}phenyl)piperidin-3-yl]-5-(difluoromethyl)-1H-pyrazole-4-carboxylic acid hydrochloride (Enantiomer 2)]	–
–	–	2.0	–	0.0113	O=C(O)c1cnn(C2CCCN(c3cc(Cl)ccc3-c3ccc(N4CCN(C(=O)[C@H]5C[C@H]5F)CC4)cc3)C2)c1C(F)F (single isomer, unassigned; stereoisomer 2) [Example 35]	–
–	–	1.0	–	0.0042	O=C(O)c1cnn(C2CCCN(c3cc(Cl)ccc3-c3ccc(N4CCN(C[C@@H]5C[C@@H]5F)CC4)cc3)C2)c1C(F)F (single isomer, unassigned; stereoisomer 2) [Example 36]	–
